Measured values from a melting point compilation (Tetko et al.; mined from patent text by program, amines drawn as free bases though some values may be those of a salt).

SMILES | melting point [°C]
NS(=O)(=O)c1ccc(-c2noc(-c3ncn4c(C(F)(F)F)cc(-c5ccc(C(F)(F)F)cc5)nc34)n2)s1 | 295
CCOC(=O)C=C(C)NC(=O)Nc1cc(OC(C)C)c(Cl)cc1F | 142 to 144
O=Nc1c(-c2ccccc2)nc2ncccn12 | 223 to 225
CCOC(=O)C1=C(N)NC2=C(C(=O)CCC2)C1c1cc(OC)c(OC)cc1[N+](=O)[O-] (configuration not stated) | 261
O=C(Cl)CCCCCCCBr | 110 to 112
Cc1c(-c2ccccc2)oc2c(S(=O)CCCCCl)cccc2c1=O (configuration not stated) | 124 to 125
CC(CCCl)C(=O)Nc1scc(C(C)(C)C)c1C#N (configuration not stated) | 115 to 116
Clc1n[nH]c2cccc(NC3=NCCN3)c12 | 245 to 250
CN1CCC(c2c(O)cc(O)c3c(=O)cc(-c4ccc(C(F)(F)F)cc4)oc23)C1CO (configuration not stated) | 238
CN1CC(CCN2CCC(c3c[nH]c4ccccc34)CC2)C=C2c3cccc4[nH]cc(c34)CC21 (configuration not stated) | 184 to 187
Cc1ccc(C(=O)Oc2ccc(C(CN(C)C)C3(O)CCCCC3)cc2)cc1 (configuration not stated) | 159 to 162
c1ccc(COCCCCOCc2ccccc2)cc1 | 18
CC(C)(O)Cn1c(N)nc2c(N)nc3c(c21)CCCC3 | > 270
CC(=O)NC1CCC2=C(CC1)C(=O)CC=C2 (configuration not stated) | 115 to 116
O=C(CC1NCCCC1O)Cn1cnc2cc(Br)c(Cl)cc2c1=O (configuration not stated) | 205
COc1c(-c2nnc(C)s2)cc2oc(=O)c(C)c(C)c2c1C | 201 to 203
CN(Cc1ccccc1)c1cc(Oc2cccc(C(F)(F)F)c2)nc(C(=O)Nc2ccccc2)c1 | 111 to 114
CCN1c2ncccc2C(=O)Nc2c(C)cc(NCCn3cc[nH]c3=O)nc21 | > 300
CC(C)c1noc(-c2ncn3c2nc(N2CCOCC2)c2cc(F)ccc23)n1 | 262 to 264
COc1c(O)cc2c(c1Sc1ccccc1)CCN(C)CC2 | 161 to 162

SMILES | melting point [°C]
Clc1ccc(-c2cn3c(n2)CCCC3)c(Cl)c1 | 134 to 136
CCOC(=O)c1cn(CCBr)c2nc(N3CCN(C(C)=O)CC3)ncc2c1=O | 202 to 204
CC1CN(c2c(F)cc3c(=O)c(C(=O)O)cn(C)c3c2C(F)(F)F)CCN1c1ncccn1 (configuration not stated) | 283 to 284
COc1cc(C(=O)NN)cc(OC)c1OCCCN(C)C | 95 to 96
O=CNc1csc(Br)n1 | 167
O=[N+]([O-])c1cnc(Cl)nc1NCCO | 123 to 125
O=C(NC1CCC1)c1cc([N+](=O)[O-])[nH]n1 | 240
c1ccc2c(c1)CCc1c(CN3CCN(c4ccc5ccccc5n4)CC3)n[nH]c1-2 | 154 to 155
N#CN=c1ccccn1C1=CC(CF)(CF)Oc2ccc([N+](=O)[O-])cc21 | 238 to 240
C1=C(c2nc(COc3ccc(CCCCn4cncn4)cc3)co2)CCc2ccccc21 | 96 to 97
CCOC(=O)CCCNCc1nn2c(-c3ccc(OC)cc3)nnc2c2ccccc12 | 103 to 105
CNC(=O)N1CCc2[nH]cnc2C1C1CCCCC1 (configuration not stated) | 250
COCc1cc2c(NC(=S)N3Cc4ccccc4CC3CCO)cccc2cn1 (racemic) | 152
CC1(C2CCC3C4CCC5CC6OC6CC5(C)C4C(=O)CC32C)OCCO1 (configuration not stated) | 159 to 160
CCOc1ccc(OCC)c(C[C@@H](C(=O)[C@H](Cc2cc(OCC)ccc2OCC)N2C(=O)c3ccccc3C2=O)N2C(=O)c3ccccc3C2=O)c1 | 92 to 93
O=C(O)COCCOCCN1CCC(=C(c2ccccc2)c2ccccc2)CC1 | 120 to 123
C[C@H](CN(C(=O)C1C2CCC1CC2)c1ccccn1)N1CCN(c2cccc3[nH]ccc23)CC1 (some centres not stated) | 176 to 179
Cc1cn([C@@H]2C[C@H](C(=O)OC(c3ccccc3)c3ccccc3)N(CCNC(=O)OCC3c4ccccc4-c4ccccc43)C2)c(=O)n(C(=O)c2ccccc2)c1=O | 94 to 98
OCc1sc(Cl)nc1C(F)(F)F | 39 to 45
COc1cc(C2(C#N)CC2)ccc1OCc1ccccc1 | 84

The next lines start with the values.

melting point [°C] | SMILES
133 to 134 | CC(C)c1ccc(Oc2ccc(C(=O)C=CC(=O)O)cc2)cc1
106 to 108 | O=C(Cc1cccc(Cl)c1)c1ccn(S(=O)(=O)c2ccccc2)c1
214 to 216 | Cc1ccc(C=CC(=O)O)cn1
172 to 174 | CCCc1c(OCCCSc2nnc(NC(=O)CC(=O)O)s2)ccc(C(C)=O)c1O
158 to 160 | CN1C(=O)CN(C(=O)CNC(=O)OCc2ccccc2)C(c2ccccc2)c2cc(Cl)ccc21 (configuration not stated)
98 to 102 | COC(=O)c1ccc(OC)c(C=O)c1
93 to 96.5 | CNC(=O)c1cccc(NCC(=O)NCCc2ccc(OC)c(OC)c2)c1
274 to 275 | CNC(=O)CCc1cn(Cc2ccc(C(=O)O)cc2OC)c2cc(C(=O)NCC3CCCC3)ccc12
280 to 285 | Cc1c(Cc2ccc([N+](=O)[O-])cc2)c(=O)oc2cc(O)cc(O)c12
116 to 117 | O=C(O)Cc1cc(Cc2cccc(Oc3ccccc3)c2)ccc1Nc1c(Cl)cccc1Cl
145 to 147 | O=C(CC(Cc1ccccc1)(C(=O)O)C(=O)O)c1cccc(C(F)(F)F)c1
169 to 172 | Cc1ccc(-c2noc(C(F)F)c2-c2ccc(S(N)(=O)=O)cc2)cc1
210 to 211 | COc1cccc2c1Sc1ccc(C(C)C(N)=O)cc1C(=O)C2 (configuration not stated)
144 | CCN(CC)C(=O)CCc1nc(-c2ccccc2)nc2ccc(OC)cc12
218 | CS(=O)(=O)Nc1ccc(C=CC(=O)O)cc1
119 to 120 | COc1cc(CC(=O)NCCCc2ccc(C)c(C)c2)ccc1OCCO

melting point [°C] | SMILES
145 to 147 | O=C(Nc1ccccc1)Nc1ccc(Cl)cc1C(=O)c1ccccc1
156 to 158 | COC(=O)CCS(=O)(=O)c1ccc(NC(C)=O)cc1
269 | CN(c1cccc2cc(-c3nccs3)[nH]c12)S(=O)(=O)c1ccsc1C(N)=O
137 to 139 | O=C(NCc1ccccc1)c1ccnc(-n2cnn(CC3CC3)c2=O)c1
203 to 204 | COc1c(O)cc2oc(-c3ccccc3)cc(=O)c2c1O
122 to 123 | CC(C)[C@H](NC(=O)OCC1c2ccccc2-c2ccccc21)C(=O)N[C@@H](C)C(=O)O
132 to 135 | CC(C)(C)C(=O)C(Cl)NC(=O)c1ccc(Cl)cc1 (configuration not stated)
223 to 224 | Cc1nc2cccc(S(N)(=O)=O)c2s1
136 to 138 | C[C@H](NC(=O)c1ccc([N+](=O)[O-])cc1F)C(=O)O
258 to 259 | N#Cc1cc(C(=O)NNC(=O)c2occc2-c2cccs2)ccc1O
109 to 112 | CC(C#N)c1cccc2c(-c3ccccc3)onc12 (configuration not stated)
272 to 277 | CC1(N)CN(c2c(F)cc3c(=O)c(C(=O)O)cn(-c4ccc(F)cc4)c3c2F)C1
214 to 216 | Cc1[nH]c(-c2ccccc2)c(N)c1C(=O)c1ccccc1Cl
83 to 85 | COC(=O)c1nccnc1Oc1ccccc1C(F)(F)F
135 to 136 | Clc1ccccc1N=Cc1ccc(-c2nc3ccccn3n2)cc1
148 to 150 | CC(=O)N1C(C(=O)NCCO[N+](=O)[O-])CSC1c1ccccc1C(=O)O (configuration not stated)
